According to ChEMBL document CHEMBL1149507, “Synthesis, structure, and bioactivity of N'-substituted benzylidene-3,4,5-trimethoxybenzohydrazide and 3-acetyl-2-substituted phenyl-5-(3,4,5-trimethoxyphenyl)-2,3-dihydro-1,3,4-oxadiazole derivatives” (Bioorg Med Chem Lett, 2006):
pIC50: −log10 of the molar value.

Legend:
[1] = tested on: PC-3; test: Antiproliferative activity against human PC3 cell line at 5 uM by MTT assay; assay type: functional
[2] = tested on: BGC-823; test: Antiproliferative activity against human BGC823 cell line at 1 uM by MTT assay; assay type: functional
[3] = tested on: BGC-823; test: Antiproliferative activity against human BGC823 cell line at 5 uM by MTT assay; assay type: functional
[4] = tested on: Bcap37; test: Antiproliferative activity against human Bcap37 cell line at 1 uM by MTT assay; assay type: functional
[5] = tested on: Bcap37; test: Antiproliferative activity against human Bcap37 cell line at 5 uM by MTT assay; assay type: functional
[6] = tested on: PC-3; test: Antiproliferative activity against human PC3 cell line at 1 uM by MTT assay; assay type: functional
[7] = tested on: PC-3; test: Antiproliferative activity against human PC3 cell line by MTT assay; assay type: functional, cell-based

Structure (SMILES)	inhibition at 5 µM [1]	inhibition at 1 µM [2]	inhibition at 5 µM [3]	inhibition at 1 µM [4]	inhibition at 5 µM [5]	inhibition at 1 µM [6]	pIC50 [7]
COc1cc(C(=O)N/N=C/c2ccc(C(F)(F)F)cc2)cc(OC)c1OC	61.6%	47.4%	56.3%	61.8%	65.6%	59.9%	–
COc1ccc(OC)c(/C=N/NC(=O)c2cc(OC)c(OC)c(OC)c2)c1	51.7%	0.1%	10.1%	0%	0%	30.9%	–
COc1cc(C(=O)N/N=C/c2ccc(Cl)c(Cl)c2)cc(OC)c1OC	31.6%	29.6%	32.7%	0.1%	0.6%	13.5%	–
COc1cc(C(=O)N/N=C/c2ccc(F)c(F)c2)cc(OC)c1OC	43.7%	33.1%	51.9%	58.5%	68.2%	35.1%	–
COc1cc(C2=NN(C(C)=O)C(c3cc(OC)c(OC)c(OC)c3)O2)cc(OC)c1OC (stereo not given)	0.1%	-1.8%	-1.4%	5.1%	5.4%	-1.8%	–
COc1cc(C(=O)N/N=C/c2ccc(F)cc2)cc(OC)c1OC	82.8%	50.9%	61.1%	50.2%	55.5%	76%	–
COc1cc(C(=O)N/N=C/c2cccc(F)c2)cc(OC)c1OC	64.1%	13.6%	44.8%	38%	49%	53.5%	–
COc1ccc(/C=N/NC(=O)c2cc(OC)c(OC)c(OC)c2)c(OC)c1	22.2%	-6.9%	3.6%	-3%	-0.1%	10%	–
COc1cc(C2=NN(C(C)=O)C(c3cccc(C(F)(F)F)c3)O2)cc(OC)c1OC (stereo not given)	43.6%	27.9%	41.1%	10.1%	35.5%	30.1%	–
COc1cc(C(=O)N/N=C/c2cc(Cl)cc(Cl)c2)cc(OC)c1OC	46.3%	-7.5%	9.2%	-5.4%	3.6%	22.1%	–
COc1cc(C2=NN(C(C)=O)C(c3ccc(Cl)c([N+](=O)[O-])c3)O2)cc(OC)c1OC (stereo not given)	61.4%	-2.3%	0%	-2.9%	1%	43.3%	–
COc1ccc(OC)c(C2OC(c3cc(OC)c(OC)c(OC)c3)=NN2C(C)=O)c1 (stereo not given)	43.2%	0.4%	18.2%	-3.8%	2.3%	37.2%	–
COc1cc(C2=NN(C(C)=O)C(c3ccc(F)c(F)c3)O2)cc(OC)c1OC (stereo not given)	46.9%	18.3%	21.6%	-1.3%	2.3%	35.5%	–
COc1cc(C2=NN(C(C)=O)C(c3c(Cl)cccc3Cl)O2)cc(OC)c1OC (stereo not given)	-2.2%	-1.4%	15.9%	9.3%	45.8%	5.1%	–
COc1cc(C(=O)N/N=C/c2ccccc2C(F)(F)F)cc(OC)c1OC	52.9%	22.1%	35.6%	56.8%	80%	45%	–
COc1cc(C(=O)N/N=C/c2ccc(Cl)c([N+](=O)[O-])c2)cc(OC)c1OC	42.3%	-5.8%	2.3%	-4.4%	9.6%	32.1%	–
COc1cc(C2=NN(C(C)=O)C(c3cccc(OC)c3OC)O2)cc(OC)c1OC (stereo not given)	58.2%	3.8%	17.5%	0.1%	2.8%	35%	–
COc1cc(C2=NN(C(C)=O)C(c3ccc(C(F)(F)F)cc3)O2)cc(OC)c1OC (stereo not given)	-0.7%	4.2%	3.4%	-3.5%	14.2%	-11%	–
COc1cc(C2=NN(C(C)=O)C(c3ccccc3F)O2)cc(OC)c1OC (stereo not given)	31.6%	29.6%	32.8%	-1.5%	-2%	13.5%	–
COc1cc(/C=N/NC(=O)c2cc(OC)c(OC)c(OC)c2)cc(OC)c1OC	48.3%	-5%	22.9%	11.8%	13.6%	8.5%	–
COc1cc(C(=O)N/N=C/c2ccccc2F)cc(OC)c1OC	81.8%	51.6%	76.5%	58.9%	81.8%	70.6%	–
COc1cc(C2=NN(C(C)=O)C(c3ccc(Cl)c(Cl)c3)O2)cc(OC)c1OC (stereo not given)	26.1%	-0.8%	3.1%	-3.2%	0%	28.1%	–
COc1cc(C(=O)N/N=C/c2cccc(C(F)(F)F)c2)cc(OC)c1OC	79.8%	17.7%	33.8%	8.3%	15.5%	51%	–
COc1cc(C(=O)N/N=C/c2c(Cl)cccc2Cl)cc(OC)c1OC	52.1%	0.9%	27.8%	-7.2%	2.9%	43%	–
COc1cc(C2=NN(C(C)=O)C(c3cccc(F)c3)O2)cc(OC)c1OC (stereo not given)	43.5%	14.7%	37.7%	14%	23.8%	16.5%	–
COc1cc(C2=NN(C(C)=O)C(c3ccc(F)cc3)O2)cc(OC)c1OC (stereo not given)	0.1%	-0.4%	13.3%	-1.4%	-0.1%	0%	–
COc1ccc(C2OC(c3cc(OC)c(OC)c(OC)c3)=NN2C(C)=O)c(OC)c1 (stereo not given)	92%	6.3%	-3.1%	-0.3%	2.5%	69.5%	6.52
COc1cccc(/C=N/NC(=O)c2cc(OC)c(OC)c(OC)c2)c1OC	67%	-0.1%	14.2%	-2.3%	12.3%	53.2%	–
COc1cc(C2=NN(C(C)=O)C(c3ccccc3C(F)(F)F)O2)cc(OC)c1OC (stereo not given)	15.2%	31.8%	34.8%	-1.2%	16.2%	-11%	–
